From ChEMBL document CHEMBL1201862, “PubChem BioAssay data set” (2004) come the findings set out here.

Each structure is given as a SMILES string. Calls of active or inactive are those of the source.

System in the first assay: not listed separately
Briefly: HEp-2 cell cytotoxicity, dose response, cytotoxicity control for RSV inhibitor project, HTS (AID 2410). Type of assay: functional. To be noted: human respiratory syncytial virus.
As to `FC(F)(F)c1nnc2n1N=C(c1cccs1)CS2`, the CC50 was 22.6 µM (active). `COc1ccc(Cl)cc1-c1nc(-c2ccc(NC(=O)c3cccs3)cc2)no1`: the CC50 was 23.2 µM (active). For the compound `Cc1ccccc1OCCCn1c(=O)sc2ccccc21`, the CC50 was 32.2 µM (active).

For `Cc1ccc(C2=NN(S(=O)(=O)c3ccccc3)C(c3ccco3)C2)cc1` (stereo unspecified), the CC50 is 8.13 µM (active). Take `CCCCOc1ccc2c(c1)C(=O)c1cc(O)ccc1-2`: the CC50 was 11.7 µM (active). With `O=C(Nc1ccc(NC(=S)NC(=O)c2ccccc2Cl)cc1)c1cccc(Cl)c1`, the CC50 is > 50 µM (active). As to `CNc1nc(-c2ccccc2)nnc1C(F)(F)F`, the CC50 is 27.7 µM (active). Consider `CCCN(Cc1nnc(-c2ccccc2Cl)o1)C(=O)c1cc2ccccc2o1`, for which the CC50 is 19.5 µM (active).

The target of another assay is T1, Heat shock factor protein 1 (Mus musculus, UniProt P38532).
T1 sequence (P38532 whole entry): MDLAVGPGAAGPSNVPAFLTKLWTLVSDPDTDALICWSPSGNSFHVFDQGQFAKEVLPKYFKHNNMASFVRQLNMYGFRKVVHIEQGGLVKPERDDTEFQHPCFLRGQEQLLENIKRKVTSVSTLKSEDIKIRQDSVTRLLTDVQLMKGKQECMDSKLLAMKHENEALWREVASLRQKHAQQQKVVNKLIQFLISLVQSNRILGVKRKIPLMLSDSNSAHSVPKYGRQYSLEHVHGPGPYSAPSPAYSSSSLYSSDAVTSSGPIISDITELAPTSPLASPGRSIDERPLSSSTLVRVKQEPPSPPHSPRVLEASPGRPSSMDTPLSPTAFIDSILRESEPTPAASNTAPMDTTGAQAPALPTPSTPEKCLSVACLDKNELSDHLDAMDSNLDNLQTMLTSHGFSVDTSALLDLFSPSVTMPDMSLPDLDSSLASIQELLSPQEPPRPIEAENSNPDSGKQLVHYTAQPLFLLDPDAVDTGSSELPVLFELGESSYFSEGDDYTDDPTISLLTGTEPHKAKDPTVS
Briefly: inhibition of MG132-induced HSE-luciferase signal, confirmation, cell-based, NIH3T3, luminescence, dose retest (AID 2382).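 Also: NIH3T3 fibroblasts with HSF1-driven luciferase reporter stressed by proteasome inhibitor MG132; luminescence from HSF1-driven luciferase expression after 8 hours of MG132 stress.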 Type of assay: functional.
Details: not given
With `CCCN(CCC)C(=O)CSc1nc2ccsc2c(=O)n1NC(=O)c1ccccc1`, the EC50 is given as > 195 µM (not active). As to `CCc1ccccc1NC(=O)COc1cccc2ccc(C)nc12`, the EC50 was > 195 µM (not active). For `O=C(CNC(=O)C12CC3CC(CC(C3)C1)C2)NCc1ccccc1`, the EC50 is > 195 µM (not active). Same read-out and setting: to `COc1ccc(NS(=O)(=O)c2ccc3[nH]c(COc4ccc5ccccc5c4)nc3c2)cc1` belongs > 195 µM (not active). Take `Cn1ncc([N+](=O)[O-])c1C(=O)Nc1ccccc1Cl`: the EC50 is on record as > 195 µM (not active). Turning to `O=Cc1ccc(OC(=O)Cc2ccc(F)cc2)cc1`, the EC50 is given as > 195 µM (not active). As to `O=[N+]([O-])c1ccc(O)c(/C=N/c2ccc3oc(Cc4ccc(Cl)cc4)nc3c2)c1`, the EC50 is on record as > 195 µM (not active). `Cc1ccccc1OCC(=O)Nc1ccc([N+](=O)[O-])cc1`: the EC50 was > 195 µM (not active).

System in the next assay: not listed separately
In words: Luminescence Cell-Based Dose Retest to Confirm Inhibitors of Cancer Stem Cells. [Related pubchem assays (depositor defined):AID2717, AID2721]. Type of assay: functional. Conditions: Homo sapiens.
In the case of `COc1cc2cnc(-c3ccccc3)c(-c3cccc(C(F)(F)F)c3)c2cc1OC`, the AC50 is 4.47 µM (active). On the same count and under the same terms, to `CC1(C)Cc2ccccc2C(CSc2ccccc2C(=O)O)=N1` belongs 4.98 µM (active); to `COc1cccc(C(=O)Nc2ccc(C3CC3(Cl)Cl)cc2)c1` (stereo unspecified), 3.15 µM (active). `O=C(Nc1ccc(NC(=S)NC(=O)c2ccccc2Cl)cc1)c1cccc(Cl)c1`: the AC50 was 3.26 µM (active). In the case of `O=c1cc(-c2ccccc2)[nH]n1-c1ccc([N+](=O)[O-])cc1`, the AC50 was 4.13 µM (active).

The target in the next assay is T2, Replicative DNA helicase DnaB (Mycobacterium tuberculosis, UniProt P9WMR3).
T2 sequence (P9WMR3 whole entry): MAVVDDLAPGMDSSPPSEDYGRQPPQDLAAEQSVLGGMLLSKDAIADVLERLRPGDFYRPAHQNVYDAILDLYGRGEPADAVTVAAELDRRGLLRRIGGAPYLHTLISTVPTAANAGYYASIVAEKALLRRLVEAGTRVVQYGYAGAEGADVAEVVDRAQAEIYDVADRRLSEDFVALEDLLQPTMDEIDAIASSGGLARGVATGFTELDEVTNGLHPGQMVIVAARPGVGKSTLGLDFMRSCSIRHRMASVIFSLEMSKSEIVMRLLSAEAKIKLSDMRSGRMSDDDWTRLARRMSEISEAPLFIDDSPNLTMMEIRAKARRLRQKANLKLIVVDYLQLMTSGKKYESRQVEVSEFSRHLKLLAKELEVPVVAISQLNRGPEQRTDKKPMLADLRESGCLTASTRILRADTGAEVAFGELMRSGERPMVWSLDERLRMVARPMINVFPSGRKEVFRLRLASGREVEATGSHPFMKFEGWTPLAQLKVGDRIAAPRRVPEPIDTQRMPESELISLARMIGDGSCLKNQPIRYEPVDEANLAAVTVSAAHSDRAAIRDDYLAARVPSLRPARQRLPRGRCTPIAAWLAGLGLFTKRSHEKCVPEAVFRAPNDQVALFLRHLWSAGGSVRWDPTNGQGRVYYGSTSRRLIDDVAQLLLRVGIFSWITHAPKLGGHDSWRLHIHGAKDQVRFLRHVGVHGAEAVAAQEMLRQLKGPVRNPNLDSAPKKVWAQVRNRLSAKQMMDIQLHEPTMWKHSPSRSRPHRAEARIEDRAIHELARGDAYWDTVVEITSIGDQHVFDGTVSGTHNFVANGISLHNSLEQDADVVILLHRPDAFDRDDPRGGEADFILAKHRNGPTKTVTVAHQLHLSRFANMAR
In words: DnaB intein splicing inhibitors, dose response, biochemical, cell-free fluorescence (AID 449749). Type of assay: functional.
Details: not given
As for `O=c1cc(-c2ccccc2)[nH]n1-c1ccc([N+](=O)[O-])cc1`, the half-maximal activity concentration (AC50) is 3.09 µM (active).

The target in a further assay is T3, Protein RecA (Mycobacterium tuberculosis, UniProt P9WHJ3).
T3 sequence (P9WHJ3 whole entry): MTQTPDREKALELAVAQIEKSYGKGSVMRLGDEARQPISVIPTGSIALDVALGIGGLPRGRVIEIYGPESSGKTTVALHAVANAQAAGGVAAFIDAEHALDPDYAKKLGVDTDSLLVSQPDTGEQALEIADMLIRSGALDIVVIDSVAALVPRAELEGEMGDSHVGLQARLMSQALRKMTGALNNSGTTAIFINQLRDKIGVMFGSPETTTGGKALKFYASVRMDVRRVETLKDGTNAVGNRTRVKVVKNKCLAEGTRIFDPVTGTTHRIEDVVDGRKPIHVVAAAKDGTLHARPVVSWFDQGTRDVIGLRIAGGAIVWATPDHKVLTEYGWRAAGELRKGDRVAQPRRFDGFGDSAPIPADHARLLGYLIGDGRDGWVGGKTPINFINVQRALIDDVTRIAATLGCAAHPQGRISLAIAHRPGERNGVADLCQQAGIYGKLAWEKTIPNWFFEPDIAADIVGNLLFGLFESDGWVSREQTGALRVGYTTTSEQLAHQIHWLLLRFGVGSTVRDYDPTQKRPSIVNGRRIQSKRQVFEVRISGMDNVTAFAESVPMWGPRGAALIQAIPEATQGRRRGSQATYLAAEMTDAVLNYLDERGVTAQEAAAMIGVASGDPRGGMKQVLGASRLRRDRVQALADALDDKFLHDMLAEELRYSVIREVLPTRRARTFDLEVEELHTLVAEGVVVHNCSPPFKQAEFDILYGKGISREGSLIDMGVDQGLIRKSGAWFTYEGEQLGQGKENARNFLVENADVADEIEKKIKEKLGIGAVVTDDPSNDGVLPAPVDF
Briefly: Fluorescence Cell-Free Homogeneous Dose Retest to Identify Inhibitors of RecA-Intein Splicing Activity. [Related pubchem assays (depositor defined):AID2097, AID2223, AID489010, AID492950]. Type of assay: functional.
Details: not given
As for `O=c1cc(-c2ccccc2)[nH]n1-c1ccc([N+](=O)[O-])cc1`, the EC50 is 11 µM (active).

The subject of the next assay is H9c2. Briefly: cells. Type of assay: functional, cell-based. To be noted: Rattus norvegicus, H9c2, Myocardium.
`COc1ccc(Cl)cc1-c1nc(-c2ccc(NC(=O)c3cccs3)cc2)no1`: the IC50 is > 79 µM (inactive).

The target of another assay is T4, Protein skinhead-1 (Caenorhabditis elegans, UniProt P34707).
T4 sequence (P34707 whole entry): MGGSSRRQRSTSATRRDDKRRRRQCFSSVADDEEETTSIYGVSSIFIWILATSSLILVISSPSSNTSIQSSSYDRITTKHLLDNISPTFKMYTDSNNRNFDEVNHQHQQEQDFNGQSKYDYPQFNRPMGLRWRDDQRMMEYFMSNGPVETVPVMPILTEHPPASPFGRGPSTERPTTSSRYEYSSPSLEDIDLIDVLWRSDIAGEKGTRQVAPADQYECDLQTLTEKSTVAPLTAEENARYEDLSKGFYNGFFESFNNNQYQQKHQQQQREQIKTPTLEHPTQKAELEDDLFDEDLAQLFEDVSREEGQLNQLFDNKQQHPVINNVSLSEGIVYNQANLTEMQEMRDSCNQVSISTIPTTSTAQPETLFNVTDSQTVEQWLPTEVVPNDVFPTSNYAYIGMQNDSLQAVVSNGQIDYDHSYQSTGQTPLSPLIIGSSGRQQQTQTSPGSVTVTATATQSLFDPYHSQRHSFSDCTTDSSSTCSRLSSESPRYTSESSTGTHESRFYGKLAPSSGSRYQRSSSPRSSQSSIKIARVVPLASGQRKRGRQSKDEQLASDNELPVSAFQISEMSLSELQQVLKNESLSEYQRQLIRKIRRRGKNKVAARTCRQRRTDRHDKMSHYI
Assay: not given
Type of assay: functional.
Details: not given
For `COC(=O)c1oc2ccc(Cl)cc2c1-n1cccc1`, the IC50 is > 100 µM (inactive). Turning to `Clc1ccc(C=Cc2ccccn2)cc1`, the IC50 is 5.71 µM (active).

`O=C1C2C(C(=O)N1Cc1cccnc1)C1C=CC2C12CC2` (stereo unspecified): the IC50 was > 100 µM (inactive). With `CC1CCCCC1N1CN=C(Nc2nc3ccccc3s2)NC1` (stereo unspecified), the IC50 is > 100 µM (inactive).

`COCC(=O)Nc1sc2c(c1C(=O)OC)CCCC2`: the IC50 was > 100 µM (inactive). Turning to `O=C(Nc1ccc2[nH]c(-c3ccccc3)nc2c1)c1cccs1`, the IC50 is > 100 µM (inactive).

As to `Cc1ccc(C2CC(=O)Oc3cc(O)ccc32)cc1` (stereo unspecified), the IC50 is > 100 µM (inactive). For `Cc1cnc(NC(=O)CC(C)c2ccccc2)s1` (stereo unspecified), the IC50 is > 100 µM (inactive).

As to `O=C1/C(=C/c2cccs2)CCC1C1CCCC1` (stereo unspecified), the IC50 is > 100 µM (inactive).

System in a further assay: not listed separately
Briefly: P. falciparum Dd2 growth inhibitors, dose response, SYBR Green, cherry-picked samples (AID 1159567).
Details: not given
Type of assay: functional, cell-based.
Regarding `C[C@@H]1CN([C@@H](C)CO)C(=O)Cc2cc(NC(=O)Nc3ccccc3)ccc2O[C@H]1CN(C)CC1CC1`, the AC50 is 8.09 µM (active). Take `C[C@@H]1CN([C@H](C)CO)S(=O)(=O)c2ccc(C3=CCCCC3)cc2O[C@H]1CN(C)C(=O)Cc1ccncc1`: the AC50 was 3.22 µM (active).

`COc1cccc(-c2ccc3c(c2)[C@@H]2[C@@H](CCN2S(=O)(=O)c2cn(C)cn2)[C@@H](CO)N3)c1`: the AC50 was 9.63 µM (active).

For the compound `CCC(=O)N1CC2(C1)[C@H](c1ccccc1)[C@H](CO)N2Cc1ccccc1OC`, the half-maximal activity concentration (AC50) is 8.35 µM (active). For `COc1ccc(NC(=O)N2CCC3(CC2)CN(C(=O)C2CCC2)[C@@H](CO)c2c3c3ccc(OC)cc3n2C)cc1`, the AC50 is 6.04 µM (active). With `O=C(c1ccccn1)N1CC2(C1)[C@@H](c1ccccc1)[C@H](CO)N2Cc1ccc(Cl)cc1`, the AC50 is 4.6 µM (active).

A further assay deals with Cytochrome P450 2D6 (Homo sapiens, UniProt P10635).
Chain of Cytochrome P450 2D6 (P10635 whole entry): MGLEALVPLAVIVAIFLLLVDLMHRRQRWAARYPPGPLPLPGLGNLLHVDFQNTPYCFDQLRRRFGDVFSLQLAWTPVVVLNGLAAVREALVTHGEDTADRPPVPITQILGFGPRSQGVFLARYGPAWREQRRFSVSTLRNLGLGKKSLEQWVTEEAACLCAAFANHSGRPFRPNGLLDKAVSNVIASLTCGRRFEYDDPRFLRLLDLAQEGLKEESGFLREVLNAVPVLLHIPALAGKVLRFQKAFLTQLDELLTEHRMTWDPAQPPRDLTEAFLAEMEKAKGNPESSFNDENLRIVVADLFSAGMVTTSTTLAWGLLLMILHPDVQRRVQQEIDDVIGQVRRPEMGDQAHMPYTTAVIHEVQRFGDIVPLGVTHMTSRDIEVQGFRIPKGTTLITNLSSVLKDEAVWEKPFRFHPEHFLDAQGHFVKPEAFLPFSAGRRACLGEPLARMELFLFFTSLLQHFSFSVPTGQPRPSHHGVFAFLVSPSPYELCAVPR
Assay: not given
Details: not given
For the compound `Cc1ccccc1OCCCn1c(=O)sc2ccccc21`, the concentration at half-maximal activity (AC50) is 11.2 µM (inconclusive).

In another assay the target is Cytochrome P450 3A4 (Homo sapiens, UniProt P08684).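 Also: CYP3A4 tested as one member of a cytochrome P450 panel screen.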
Chain of Cytochrome P450 3A4 (P08684 whole entry): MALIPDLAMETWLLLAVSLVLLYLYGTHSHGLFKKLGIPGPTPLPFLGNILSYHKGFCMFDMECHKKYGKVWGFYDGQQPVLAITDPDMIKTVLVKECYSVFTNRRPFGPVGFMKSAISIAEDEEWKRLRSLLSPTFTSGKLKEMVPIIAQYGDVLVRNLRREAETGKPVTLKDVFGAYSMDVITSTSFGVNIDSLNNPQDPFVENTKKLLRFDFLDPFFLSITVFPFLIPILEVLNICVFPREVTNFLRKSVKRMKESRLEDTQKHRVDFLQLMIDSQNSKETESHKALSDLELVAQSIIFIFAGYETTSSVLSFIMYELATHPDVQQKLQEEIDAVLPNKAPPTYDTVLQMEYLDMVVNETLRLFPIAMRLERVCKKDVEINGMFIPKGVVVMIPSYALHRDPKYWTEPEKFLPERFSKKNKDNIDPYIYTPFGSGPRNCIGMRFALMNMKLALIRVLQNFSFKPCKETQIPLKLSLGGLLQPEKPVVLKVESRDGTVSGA
Assay: not given
Details: not given
In the case of `Cc1ccccc1OCCCn1c(=O)sc2ccccc21`, the AC50 is 17.8 µM (inconclusive).
